Measured values taken from ChEMBL document CHEMBL1201862, “PubChem BioAssay data set” (2004).
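Growth conditions: 96-well plates. Treatment: test compound, 48 hours, 5 concentrations. Analysis: linear interpolation between bracketing concentrations; unreached endpoints set to highest concentration. At the GI50, growth is halved.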 Activity calls are given as the source filed them. Rule as the data show it: active = GI50 up to about 1.1 µM and inactive = higher.

Assays:
Experiment in all cases: growth of human tumour cells (NCI), 48 h
[1] = system: SK-MEL-28
[2] = system: U-251
[3] = system: LOX IMVI
[4] = system: SNB-19
[5] = system: SN12C
[6] = system: BT-549
[7] = system: A549
[8] = system: UO-31
[9] = system: T47D
[10] = system: Malme-3M
[11] = system: MDA-MB-231
[12] = system: MOLT-4
[13] = system: SW-620
[14] = system: SK-MEL-5
[15] = system: OVCAR-5
[16] = system: CAKI-1
[17] = system: NCI-H522
[18] = system: SF-539
[19] = system: Hs-578T

Measured: GI50

CN(C)/C=N/[C@@H](C(=O)O)c1ccccc1
inactive: [1] > 100 µM | [2] > 100 µM | [3] > 100 µM | [4] > 100 µM | [5] > 100 µM | [6] > 100 µM | [7] > 100 µM | [8] > 100 µM | [9] > 100 µM | [10] > 100 µM | [11] > 100 µM | [12] > 100 µM | [13] > 100 µM | [14] > 100 µM | [15] > 100 µM

O=C1OCC2(CO1)CC1C=CC2C1 (configuration not stated)
inactive: [1] > 100 µM | [16] > 100 µM | [2] > 100 µM | [3] > 100 µM | [4] > 100 µM | [5] > 100 µM | [17] > 100 µM | [7] > 100 µM | [8] > 100 µM | [9] > 100 µM | [10] > 100 µM | [18] > 100 µM | [11] > 100 µM | [12] > 100 µM | [13] > 100 µM | [19] > 100 µM | [14] > 100 µM | [15] > 100 µM

CCOC(=O)C(=O)N1C(C)=C(C(=O)OCC)CC(C(=O)OCC)=C1C
inactive: [1] > 100 µM | [16] > 100 µM | [3] > 100 µM | [4] > 100 µM | [5] > 100 µM | [17] > 100 µM | [7] > 100 µM | [8] > 100 µM | [9] > 100 µM | [10] > 100 µM | [18] > 100 µM | [11] > 100 µM | [12] > 100 µM | [13] > 100 µM | [19] > 100 µM | [14] > 100 µM | [15] > 100 µM

O=C(OC1C2OC(=O)c3cc(O)c(O)c(O)c3Oc3cc4c(c(O)c3O)-c3c(cc(O)c(O)c3O)C(=O)OCC3OC(O)C(OC(=O)c5cc(O)c(O)c(O)c5Oc5cc6c(c(O)c5O)-c5c(cc(O)c(O)c5O)C(=O)OC1C(COC6=O)OC2O)C(OC(=O)c1cc(O)c(O)c(O)c1)C3OC4=O)c1cc(O)c(O)c(O)c1 (configuration not stated)
inactive: [1] 76.7 µM | [16] 38.3 µM | [3] 17.9 µM | [4] 17.6 µM | [5] 26.7 µM | [7] 10.8 µM | [8] 4.8 µM | [9] > 100 µM | [10] > 100 µM | [18] 24.4 µM | [11] 19.6 µM | [12] 3.46 µM | [13] 13.2 µM | [19] 32.3 µM | [14] 53.8 µM | [15] 40.1 µM

CSc1n/c(=N\c2ccccc2)sn1-c1ccccc1
inactive: [1] 14.1 µM | [16] 13.5 µM | [2] 14.9 µM | [3] 16.6 µM | [4] 17.1 µM | [5] 15.6 µM | [17] 2.71 µM | [7] 16.6 µM | [8] 17.3 µM | [10] 24.3 µM | [18] 18.6 µM | [12] 11.2 µM | [13] 12.3 µM | [14] 11.2 µM | [15] 17.3 µM

CCOC(=O)C(NC(=O)NC(C(=O)OCC)C(=O)OCC)C(=O)OCC
inactive: [1] > 100 µM | [16] > 100 µM | [2] > 100 µM | [4] > 100 µM | [5] > 100 µM | [17] > 100 µM | [6] > 100 µM | [7] > 100 µM | [8] > 100 µM | [10] > 100 µM | [18] > 100 µM | [12] > 100 µM | [13] > 100 µM | [19] > 100 µM | [14] > 100 µM | [15] > 100 µM

O=C(O)CCC(NC(=O)c1ccc(OCc2nc3cc(C(F)(F)F)ccc3nc2-c2ccccc2)cc1)C(=O)O (configuration not stated)
inactive: [1] > 100 µM | [16] 45.4 µM | [2] > 100 µM | [3] > 100 µM | [4] > 100 µM | [5] > 100 µM | [17] > 100 µM | [7] > 100 µM | [8] > 100 µM | [9] > 100 µM | [10] > 100 µM | [18] > 100 µM | [11] > 100 µM | [12] > 100 µM | [13] > 100 µM | [15] > 100 µM

CN(C)C(=O)Oc1ccc(-c2cn3cc(NC(=O)c4ccccc4)ccc3n2)cc1
inactive: [1] > 100 µM | [16] > 100 µM | [2] 45.3 µM | [3] 53 µM | [4] 50.8 µM | [5] > 100 µM | [17] 26.4 µM | [6] 80.4 µM | [7] 83.4 µM | [8] > 100 µM | [9] 21.6 µM | [18] > 100 µM | [11] > 100 µM | [12] 17.2 µM | [13] 48.5 µM | [14] 21.4 µM | [15] > 100 µM

CCSCCCN(CCCSCC)CCCSCC
inactive: [1] > 100 µM | [2] > 100 µM | [3] > 100 µM | [4] > 100 µM | [5] > 100 µM | [17] 45.8 µM | [6] > 100 µM | [7] > 100 µM | [8] > 100 µM | [9] > 100 µM | [18] > 100 µM | [11] > 100 µM | [12] > 100 µM | [13] > 100 µM | [14] > 100 µM | [15] > 100 µM

C=C1CC2CC(=O)C(O)C(C1)C2 (configuration not stated)
inactive: [16] > 100 µM | [3] > 100 µM | [5] > 100 µM | [17] > 100 µM | [7] > 100 µM | [8] > 100 µM | [9] 69 µM | [18] > 100 µM | [12] > 100 µM | [13] > 100 µM | [19] > 100 µM | [14] > 100 µM | [15] > 100 µM

CC(NC1=NCCO1)c1cccc([N+](=O)[O-])c1 (configuration not stated)
inactive: [1] > 100 µM | [16] > 100 µM | [2] > 100 µM | [3] > 100 µM | [4] > 100 µM | [5] > 100 µM | [17] > 100 µM | [7] > 100 µM | [8] > 100 µM | [9] > 100 µM | [10] > 100 µM | [18] > 100 µM | [11] > 100 µM | [12] 88.7 µM | [13] > 100 µM | [19] > 100 µM | [14] > 100 µM | [15] > 100 µM

CC12OC3(C(O)C1O)C(C(=O)O[C@H]3CO[Si](C)(C)C(C)(C)C)C2S(=O)(=O)c1ccccc1 (some centres not stated)
inactive: [1] 56 µM | [2] 86.3 µM | [3] 18.7 µM | [4] 40 µM | [5] > 100 µM | [17] 17.5 µM | [7] 45 µM | [8] 40.8 µM | [9] 36.1 µM | [18] 58.1 µM | [11] 60.3 µM | [12] 23.6 µM | [13] 81.5 µM | [19] 30 µM | [15] > 100 µM

Clc1nss/c1=N/c1nonc1-c1ccccc1
inactive: [1] 48.1 µM | [16] 17.1 µM | [2] 41.1 µM | [3] 27.3 µM | [4] 55.6 µM | [5] 18 µM | [17] 18.3 µM | [6] 29.6 µM | [7] 68.9 µM | [8] 17.6 µM | [10] 28 µM | [18] 22.7 µM | [11] 14 µM | [12] 25.1 µM | [13] 41.6 µM | [14] 20.3 µM | [15] 19.5 µM

S=C1Cc2c([nH]c3ccccc23)-c2ccccc2N1
inactive: [1] > 100 µM | [16] 23.3 µM | [3] 75.2 µM | [4] 34.4 µM | [5] 38.6 µM | [7] 23 µM | [8] 19.1 µM | [9] > 100 µM | [10] 69.2 µM | [18] 43.6 µM | [11] 42.9 µM | [12] 23.6 µM | [13] > 100 µM | [19] 61 µM | [14] 42 µM | [15] > 100 µM

CCOC(=O)C12CCC(=O)N1N(C)c1ncccc1N2 (configuration not stated)
inactive: [1] > 100 µM | [16] > 100 µM | [2] > 100 µM | [3] > 100 µM | [4] > 100 µM | [17] > 100 µM | [6] > 100 µM | [7] > 100 µM | [8] > 100 µM | [9] > 100 µM | [18] > 100 µM | [11] > 100 µM | [12] > 100 µM | [13] > 100 µM | [14] > 100 µM | [15] > 100 µM

CCCCCCN1C(=O)CC(=O)N(CCCCCC)S1(=O)=O
inactive: [16] 22 µM | [2] 17.6 µM | [3] 13.6 µM | [4] 41.9 µM | [5] 17.7 µM | [17] 12.9 µM | [7] 35.2 µM | [8] 1.56 µM | [9] 64.3 µM | [10] 23.5 µM | [18] 19.8 µM | [11] 17.1 µM | [12] 23.3 µM | [13] 19.1 µM | [19] 22 µM | [14] 19.8 µM | [15] 19.8 µM

COc1cc2cc[n+](C)c(Cc3ccccc3)c2cc1OC
inactive: [1] > 100 µM | [2] > 100 µM | [3] > 100 µM | [4] > 100 µM | [5] > 100 µM | [17] 86.1 µM | [7] > 100 µM | [8] > 100 µM | [10] > 100 µM | [18] > 100 µM | [12] > 100 µM | [13] > 100 µM | [14] > 100 µM | [15] > 100 µM
